We go through 2 molecules from patent US20240424071A1, “NOVEL MUTANT OF RECOMBINANT GANODERMA LUCIDUM IMMUNOMODULATORY PROTEIN AND USE THEREOF” (CHANGCHUN INTELLICROWN PHARMACEUTICAL CO., LTD., priority 2021, published 2024).

A value given as a limit tells only on which side of the number the result lay.

The test system of assay [1] is LI6669 human liver cancer orthotopic transplantation tumor. As to the kind of experiment: LI6669 human liver cancer orthotopic transplantation tumor model (PDX), survival. Type of assay: in vivo, BALB/c nude mouse. The conditions noted are these: Group 2, 50 mg/kg QD p.o. for 28 days; solvent control […] days. The source says:
LI6669 is a HuPrime® orthotopic transplantation model originated from a patient's liver cancer.
Tumor tissue was collected from a LI6669 tumor-bearing mouse, a HuPrime® orthotopic transplantation model of liver, and cut to tumor pieces with a diameter of 2-3 mm, which were inoculated into the upper left lobe of liver of a Balb/c nude mouse.
When the average tumor volume of the tumor-bearing mice reached about 50-150 mm^3, the mice were randomly grouped by weight according to Table 3 of “3. Design of Experiment”. The grouping day was set as Day 0, and the administration began on Day 1. […].
After tumor cell inoculation, route monitoring comprises the tumor growth and the effect of treatment on normal behaviors of animals, specially including the activity, food intake and water consumption, weight gain or loss, eyes, fur of experimental animals, and other abnormal conditions. The clinical symptoms observed during the experiments were all recorded in the original data. After drug administration, the mice were measured twice a week for their weights. Observation was made to record the mouse requiring euthanasia and the corresponding survival time.

Assay [2] deals with human non-small cell lung cancer cell line A549. Briefly: Killing effect on tumor cells, CellTiter-Fluor Cell Viability Assay. Type of assay: cell-based. The conditions noted are these: 48 h, 2% fetal bovine serum medium. Here is the method:
CellTiter™-Flour Cell Viability Assay Reagent kit was used to detect the killing effects of the EAEA+rLZ-8 mutant (SEQ ID NO: 14) and the […]+rLZ-8 mutant (SEQ ID NO: 15) on tumor cells (human non-small cell lung cancer cell line A549) in vitro. The recombinant protein was diluted with 2% fetal bovine serum culture medium to produce test solutions with concentrations of 100 μg/mL, 50 μg/mL, 25 μg/mL, 12.5 μg/mL, 6.25 μg/mL, 3.125 μg/mL, 1.5625 μg/mL, 0.78125 μg/mL, 0.390625 μg/mL, 0.1953125 μg/mL, and 0.09765625 μg/mL, total 11 concentrations.
The dilutions were added into a 96-well plate containing A549 cells with 100 μL/well. For each group of concentration, 3 parallel wells were set and marked. A cell control group (i.e., cells only) was set at 100 μL/well, with 6 parallel wells. The plates were cultured in a CO2 incubator at 5% CO2 and 37° C. for 48 h.
100 μL of prepared CellTiter™-Flour Cell Viability Assay Reagent (1 mLL Assay Buffer; 1 μl GF-AFC Substrate) was added into each well. The plates were shaken for mixing well, and incubated in a CO2 incubator at 5% CO2 and 37° C. for not less than 30 min. The fluorescence value was detected with a microplate reader at a wavelength of 400EX/505EM, and the IC50value was calculated.

Take `CNC(=O)c1cc(Oc2ccc(NC(=O)Nc3ccc(Cl)c(C(F)(F)F)c3)cc2)ccn1` [Sorafenib, reference compound]: in assay [1], the “Median Survival” value is >28 days.

B1: EEAEAEAEPK+rLZ-8 mutant: recombinant protein: spacer peptide EEAEAEAEPK (SEQ ID NO: 9) linked to rLZ-8 mutant (SEQ ID NO: 13) (protein)
chain: EEAEAEAEPKMSDTALIFRLAWDVKKLSFDYTPNWGRGNPNNFIDTVTFPKVLTDKAYTYRVAVSGRNLGVKPSYAVESKGSQKVNFLEYNSGYGIADTNTIQVFVVDPDTNNDFIIAQWN
modifications: EEAEAEAEPK-rLZ-8 mutant (D70K)
As for B1, the “IC50, killing effect on lung cancer cell line A549” value in assay [2] is 1.91 µg/mL.
